Assay results published in PubChem BioAssay (NCI).
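Grown in 96-well plates, cells were treated for 48 hours with each compound at five concentrations. Insufficient inhibition: endpoint recorded as highest concentration tested. TGI denotes the concentration required for complete inhibition of growth.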

Key:
Assay in all cases: NCI tumour cell line growth inhibition, 48 h
786-0 renal = tested on: 786-0 renal
UACC-257 melanoma = tested on: UACC-257 melanoma
DMS 273 small cell lung = tested on: DMS 273 small cell lung
SK-MEL-2 melanoma = tested on: SK-MEL-2 melanoma
M19-MEL melanoma = tested on: M19-MEL melanoma
A549 NSCLC = tested on: A549 NSCLC
COLO 205 colon = tested on: COLO 205 colon
NCI-H460 lung = tested on: NCI-H460 lung
HOP-92 NSCLC = tested on: HOP-92 NSCLC
U251 CNS = tested on: U251 CNS
SF-539 CNS = tested on: SF-539 CNS
HL-60(TB) leukemia = tested on: HL-60(TB) leukemia
SF-295 CNS = tested on: SF-295 CNS
LXFL 529 NSCLC = tested on: LXFL 529 NSCLC
CCRF-CEM leukemia = tested on: CCRF-CEM leukemia
UO-31 renal = tested on: UO-31 renal
SK-MEL-28 melanoma = tested on: SK-MEL-28 melanoma
OVCAR-4 ovarian = tested on: OVCAR-4 ovarian
RPMI-8226 leukemia = tested on: RPMI-8226 leukemia
SNB-78 CNS = tested on: SNB-78 CNS
HCT-15 colon = tested on: HCT-15 colon
HT29 colon = tested on: HT29 colon
SK-OV-3 ovarian = tested on: SK-OV-3 ovarian
SNB-75 CNS = tested on: SNB-75 CNS
DLD-1 colon = tested on: DLD-1 colon
A498 renal = tested on: A498 renal
SF-268 CNS = tested on: SF-268 CNS
OVCAR-5 ovarian = tested on: OVCAR-5 ovarian
HCT-116 colon = tested on: HCT-116 colon
OVCAR-8 ovarian = tested on: OVCAR-8 ovarian
DMS 114 small cell lung = tested on: DMS 114 small cell lung
IGROV1 ovarian = tested on: IGROV1 ovarian
K-562 leukemia = tested on: K-562 leukemia
SN12C renal = tested on: SN12C renal
MOLT-4 leukemia = tested on: MOLT-4 leukemia
NCI-H522 lung = tested on: NCI-H522 lung
KM20L2 colon = tested on: KM20L2 colon
UACC-62 melanoma = tested on: UACC-62 melanoma
M14 melanoma = tested on: M14 melanoma
SW-620 colon = tested on: SW-620 colon
OVCAR-3 ovarian = tested on: OVCAR-3 ovarian
EKVX NSCLC = tested on: EKVX NSCLC
ACHN renal = tested on: ACHN renal
XF 498 CNS = tested on: XF 498 CNS
SNB-19 CNS = tested on: SNB-19 CNS
HOP-18 NSCLC = tested on: HOP-18 NSCLC
NCI-H23 lung = tested on: NCI-H23 lung
TK-10 renal = tested on: TK-10 renal
CAKI-1 renal = tested on: CAKI-1 renal
SK-MEL-5 melanoma = tested on: SK-MEL-5 melanoma
HOP-62 NSCLC = tested on: HOP-62 NSCLC
MALME-3M melanoma = tested on: MALME-3M melanoma
KM12 colon = tested on: KM12 colon
LOX IMVI melanoma = tested on: LOX IMVI melanoma
HCC-2998 colon = tested on: HCC-2998 colon
RXF 393 renal = tested on: RXF 393 renal
NCI-H226 lung = tested on: NCI-H226 lung
SR leukemia = tested on: SR leukemia

Cn1c2c(c3ccccc31)CCN(CCCCN1CCN(c3cccc(Cl)c3)CC1)C2=O
TGI (786-0 renal): 29.6 µM
TGI (UACC-257 melanoma): 19.8 µM
TGI (DMS 273 small cell lung): 22.9 µM
TGI (SK-MEL-2 melanoma): 31.1 µM
TGI (M19-MEL melanoma): 25.5 µM
TGI (A549 NSCLC): 70.2 µM
TGI (COLO 205 colon): 11.2 µM
TGI (NCI-H460 lung): 28 µM
TGI (HOP-92 NSCLC): 34.7 µM
TGI (U251 CNS): 24.6 µM
TGI (SF-539 CNS): 26.5 µM
TGI (HL-60(TB) leukemia): 18.9 µM
TGI (SF-295 CNS): 34 µM
TGI (LXFL 529 NSCLC): 23.7 µM
TGI (CCRF-CEM leukemia): > 100 µM
TGI (UO-31 renal): 22.4 µM
TGI (SK-MEL-28 melanoma): 20.1 µM
TGI (OVCAR-4 ovarian): 32.2 µM
TGI (RPMI-8226 leukemia): 27.4 µM
TGI (SNB-78 CNS): 27.8 µM
TGI (HCT-15 colon): 29.7 µM
TGI (HT29 colon): 10.5 µM
TGI (SK-OV-3 ovarian): 37.8 µM
TGI (SNB-75 CNS): 9.61 µM
TGI (DLD-1 colon): 25.1 µM
TGI (A498 renal): 27.7 µM
TGI (SF-268 CNS): 49.9 µM
TGI (OVCAR-5 ovarian): 16.9 µM
TGI (HCT-116 colon): 19.4 µM
TGI (OVCAR-8 ovarian): 48 µM
TGI (DMS 114 small cell lung): 10.7 µM
TGI (IGROV1 ovarian): 47 µM
TGI (K-562 leukemia): 27.6 µM
TGI (SN12C renal): 25.8 µM
TGI (MOLT-4 leukemia): 31.6 µM
TGI (NCI-H522 lung): 25.6 µM
TGI (KM20L2 colon): 15.5 µM
TGI (UACC-62 melanoma): 23.6 µM
TGI (M14 melanoma): 10.7 µM
TGI (SW-620 colon): 26.4 µM
TGI (OVCAR-3 ovarian): 34 µM
TGI (EKVX NSCLC): 69.2 µM
TGI (ACHN renal): 37.6 µM
TGI (XF 498 CNS): 28 µM
TGI (SNB-19 CNS): 42.8 µM
TGI (HOP-18 NSCLC): > 100 µM
TGI (NCI-H23 lung): 27.4 µM
TGI (TK-10 renal): 25.1 µM
TGI (CAKI-1 renal): > 100 µM
TGI (SK-MEL-5 melanoma): 21.8 µM
TGI (HOP-62 NSCLC): 30.7 µM

O=C(NNC(=O)c1cc(/C=C/c2cccc([N+](=O)[O-])c2)[nH]c(=S)n1)Nc1ccc(Cl)cc1
TGI (786-0 renal): > 100 µM
TGI (UACC-257 melanoma): > 100 µM
TGI (DMS 273 small cell lung): > 100 µM
TGI (SK-MEL-2 melanoma): > 100 µM
TGI (M19-MEL melanoma): > 100 µM
TGI (A549 NSCLC): > 100 µM
TGI (MALME-3M melanoma): > 100 µM
TGI (KM12 colon): > 100 µM
TGI (COLO 205 colon): 37.2 µM
TGI (NCI-H460 lung): > 100 µM
TGI (U251 CNS): 30.2 µM
TGI (HL-60(TB) leukemia): 84.1 µM
TGI (SF-295 CNS): > 100 µM
TGI (LOX IMVI melanoma): 37.3 µM
TGI (HCC-2998 colon): > 100 µM
TGI (LXFL 529 NSCLC): > 100 µM
TGI (RXF 393 renal): > 100 µM
TGI (CCRF-CEM leukemia): 51.2 µM
TGI (UO-31 renal): > 100 µM
TGI (SK-MEL-28 melanoma): > 100 µM
TGI (RPMI-8226 leukemia): 52.9 µM
TGI (SNB-78 CNS): > 100 µM
TGI (HCT-15 colon): > 100 µM
TGI (HT29 colon): > 100 µM
TGI (SK-OV-3 ovarian): > 100 µM
TGI (SNB-75 CNS): > 100 µM
TGI (DLD-1 colon): 47.8 µM
TGI (NCI-H226 lung): > 100 µM
TGI (A498 renal): > 100 µM
TGI (SF-268 CNS): > 100 µM
TGI (OVCAR-5 ovarian): > 100 µM
TGI (HCT-116 colon): 60.9 µM
TGI (OVCAR-8 ovarian): > 100 µM
TGI (SR leukemia): 9.76 µM
TGI (DMS 114 small cell lung): 97.4 µM
TGI (IGROV1 ovarian): > 100 µM
TGI (K-562 leukemia): > 100 µM
TGI (SN12C renal): > 100 µM
TGI (MOLT-4 leukemia): 72 µM
TGI (NCI-H522 lung): 81.8 µM
TGI (KM20L2 colon): > 100 µM
TGI (UACC-62 melanoma): > 100 µM
TGI (M14 melanoma): > 100 µM
TGI (OVCAR-3 ovarian): > 100 µM
TGI (EKVX NSCLC): > 100 µM
TGI (ACHN renal): > 100 µM
TGI (XF 498 CNS): 81.4 µM
TGI (HOP-18 NSCLC): > 100 µM
TGI (NCI-H23 lung): > 100 µM
TGI (TK-10 renal): > 100 µM
TGI (SK-MEL-5 melanoma): > 100 µM
TGI (HOP-62 NSCLC): > 100 µM
